Data from PMC9102404, “Cationic N,N-Dimethylglycine Ester Prodrug of 2R-α-Tocotrienol Promotes Intestinal Absorption via Efficient Self-Micellization with Intrinsic Bile Acid Anion” (Molecules, 2022).
Counter-ions that a name gives are not always drawn. Each block holds one compound with its values, some of them ahead of it.

Legend:
[1] = Particle size distribution, z-potential and pH of aqueous solutions of α-T3DMG with or without TCA; format: physicochemical
Description: The fitting curves were obtained by the plateau model using GraphPad Prism to indicate a smoothing curve connecting each point. The z-average with PDI and the z-potential of the aqueous solution of α-[…] with or without TCA, as described in Section 4.7.1, were determined using a Zetasizer Nano ZS (MALVERN, Worcestershire, UK). Measurements were independently performed three times for each sample. The pH of the aqueous solution of α-[…] with or without TCA is described in Section 4.7.1. It was measured using a LAQUAtwin pH-11 pocket water quality meter (HORIBA, Ltd., Kyoto, Japan).

[2] = Plasma α-T3 pharmacokinetics after gastrostomy administration in bile duct-ligated rats; format: in vivo, rat
Description: The SD rats were fasted for 16 h, and they were provided drinking water ad libitum prior to the administration of the test compounds. The rats were administered three types of mixed anesthetic agents (medetomidine, midazolam, and butorphanol) under isoflurane anesthesia. To avoid the influence of intrinsic bile flow on intestinal absorption, a catheter was inserted into the bile ducts of the rats. The catheter was ligated with strings, and intrinsic bile flow was excluded. This animal model was referred to in an animal experimental book in Japanese, titled in English as, “An atlas of experimental animal technology” published in 1998; this method is very similar to that described in Figure 5 of Jaber et al..
Dosing solutions were prepared as follows: (i) 5.88 mmol/L α-T3DMG and 5.88 mmol/L TCA in water (α-T3DMG:TCA = 1:1), (ii) 5.88 mmol/L α-T3DMG and 11.76 mmol/L TCA in water (α-T3DMG:TCA = 1:2), and (iii) 5.88 mmol/L α-T3 and 11.76 mmol/L TCA in water (α-T3:TCA = 1:2). The α-T3 was dispersed in silica powder in ethanol, and the solvent was removed in vacuo prior to dispersion in water. The ligated rats were administered […] of α-T3DMG or α-T3 via gastrostomy. The doses were 12.5 mg/kg of body weight equivalent for α-T3.
Blood samples (200 µL) were collected from the external jugular vein under isoflurane anesthesia using heparinized syringes at 0.5, 1, 2, 3, 4, 6, 8, and 24 h. […]

Water solubility = format: physicochemical; conditions: distilled water, 25 ± 1 °C, shaken 3 h
Description: The aqueous solubility of each ester was determined by adding 50 μmol of each compound to 1 mL of distilled water in amber test tubes and incubating the tubes at 25 ± 1 °C in a constant-temperature water bath. The test tubes were shaken for 3 h, and the suspensions were filtered using a membrane filter (MF-Millipore™ Membrane Filter, 0.45 µm pore size, Merck KGaA, Darmstadt, Germany). The filtered media, including α-T3DMG, was assayed using the liquid chromatography (LC)-MS/MS method described in Section 4.8.

Stability in water = format: physicochemical
[3] = Enzymatic hydrolysis of α-T3 esters in rat plasma; format: in vitro ADME; conditions: pH 7.4, 37 °C, Michaelis–Menten fit
[4] = Enzymatic hydrolysis of α-T3 esters in rat liver microsomes; format: in vitro ADME; conditions: rat liver microsome, pH 7.4, 37 °C, Michaelis–Menten fit; for Km: liver microsomes
Description: The hydrolysis of esters was analyzed at 37 °C in phosphate-buffered saline (PBS) containing commercially available rat liver microsomes (In Vitro Technologies, Inc., Baltimore, MD, USA). The microsomes (20 mg/mL) were adjusted to a protein concentration of 0.11 mg/mL and preincubated at 37 °C for 5 min before adding the esters.
Stock solutions of the esters were prepared in a 5% methanol aqueous solution. Enzymatic reactions were initiated by adding 50 µL ester stock solution (final concentration 50–800 μmol/L) and 50 μL PBS to 900 µL preheated reaction medium containing rat liver microsomes in amber test tubes. These reactions were incubated at 37 °C; and, at various times, 100 μL aliquots were removed and mixed with 350 µL ethanol. Samples were then vortexed for 2 min and centrifuged at 1750 g for 5 min. The aliquot was analyzed using the LC-MS/MS system described in Section 4.8. The initial hydrolytic rate (μmol/L α-T3 formed per min) was calculated from the initial slope of the plot of α-T3 concentration versus time.

[5] = Effect of eserine (esterase inhibitor) on ester hydrolysis in rat liver microsomes; format: in vitro ADME; conditions: eserine 0–2.0 mmol/L
Description: The effects of eserine on α-T3DMG hydrolysis in rat liver microsomes were also examined using similar methods, with 50 µL eserine aqueous solution instead of PBS, added to the mixtures with liver microsomes. Eserine was tested at 0–2.0 mmol/L.

[6] = Appearance of aqueous solutions of α-T3DMG with or without TCA; format: physicochemical
Description: A stock solution of α-T3DMG was prepared in milliQ and combined with different concentrations of taurocholic acid (TCA) aqueous solution to the final molar ratios (α-T3DMG/TCA = 1/0.1–4). The fitting curves were obtained by the plateau model using GraphPad Prism to indicate a smoothing curve connecting each point.

[7] = Distribution of α-T3DMG to n-octanol and water phases; format: physicochemical; conditions: increasing TCA molar ratio
Description: The fitting curves were obtained by the plateau model using GraphPad Prism to indicate a smoothing curve connecting each point. The prepared solutions described in Section 4.7.1 were combined with the same volume of n-octanol and then vortexed for 2 min. The solutions were then centrifuged at 20,600× g for 20 min. The upper layer (n-octanol) and the lower layer (water) were collected, diluted with ethanol, and subjected to LC-MS/MS, as described in Section 4.7.

[8] = Toxicity observation in the in vivo study; conditions: bile duct-ligated rats, 12.5 mg/kg α-T3 equivalent, gastrostomy
[9] = 5.88 mmol/L α-T3DMG, TCA molar ratio 0
[10] = 5.88 mmol/L α-T3DMG, TCA molar ratio 0.3
[11] = 5.88 mmol/L α-T3DMG, TCA molar ratio 0.9
[12] = 5.88 mmol/L α-T3DMG, TCA molar ratio 1
[13] = 5.88 mmol/L α-T3DMG, TCA molar ratio 1.5
[14] = 5.88 mmol/L α-T3DMG, TCA molar ratio 3
[15] = 5.88 mmol/L α-T3DMG, TCA molar ratio 4
[16] = 23.52 mmol/L α-T3DMG, TCA molar ratio 0
[17] = 23.52 mmol/L α-T3DMG, TCA molar ratio 0.3
[18] = 23.52 mmol/L α-T3DMG, TCA molar ratio 1.5
[19] = 23.52 mmol/L α-T3DMG, TCA molar ratio 3
[20] = 23.52 mmol/L α-T3DMG, TCA molar ratio 4

- melting point: 170 to 173 °C
Compound: CNCC(=O)Oc1c(C)c(C)c2c(c1C)CC[C@@](C)(CC/C=C(\C)CC/C=C(\C)CCC=C(C)C)O2 (as salt: hydrochloride) [α-T3MG, 2R-α-Tocotrienyl N-methylglycinate]

Compound: C[C@H](CCC(=O)NCCS(=O)(=O)O)[C@H]1CC[C@H]2[C@@H]3[C@H](O)C[C@@H]4C[C@H](O)CC[C@]4(C)[C@H]3C[C@H](O)[C@]12C [TCA, taurocholic acid, reference compound]
- z-potential ([1]; TCA without α-T3DMG in water, 23.52 mmol/L): −38.9 ± 1.9 mV

- plasma α-T3 levels after postprandial (TCA 1:2) administration of α-T3 compared with fasting (TCA 1:1) administration of α-T3DMG ([2]; gastrostomy, Supplementary Figure S2): similar
Compound: CC(C)=CCC/C(C)=C/CC/C(C)=C/CC[C@]1(C)CCc2c(C)c(O)c(C)c(C)c2O1 [α-T3, 2R-α-Tocotrienol]

Compound: CC(C)=CCC/C(C)=C/CC/C(C)=C/CC[C@]1(C)CCc2c(C)c(OC(=O)CN(C)C)c(C)c(C)c2O1 [α-T3DMG, 2R-α-Tocotrienyl N,N-dimethylglycinate hydrochloride]
- solubility at 3 h (Water solubility): > 50000 µM
- degradation in water (Stability in water; incubated at 5 and 20 °C for 28 days): did not exhibit any degradation
- stability in water (Stability in water; room temperature (20 °C) for a month): stable
- half-life (Stability in water; water, accelerated condition at 40 °C): ~27 days
- Km [3]: 664 µM
- Vmax [3]: 8.138e-08 mol/L/min
- Km [4]: 5720 µM
- Vmax [4]: 0.0001395 mol/L/min
- hydrolysis in the presence of eserine [5]: completely inhibited
- PDI [1, 9]: 0.542 ± 0.034
- Z-Average [1, 9]: 282.0 ± 8.9 nm
- Z-Potential [1, 9]: 95.4 ± 2.5 mV
- pH [1, 9]: 3.0
- PDI [1, 10]: 0.428 ± 0.014
- Z-Average [1, 10]: 12.6 ± 0.2 nm
- Z-Potential [1, 10]: 48.3 ± 7.5 mV
- pH [1, 10]: 3.2
- PDI [1, 11]: 0.228 ± 0.039
- Z-Average [1, 11]: 3.8 ± 1.1 nm
- Z-Potential [1, 11]: 19.1 ± 12.2 mV
- pH [1, 11]: 3.8
- PDI [1, 12]: 0.203 ± 0.064
- Z-Average [1, 12]: 5.3 ± 3.5 nm
- Z-Potential [1, 12]: 8.70 ± 6.17 mV
- pH [1, 12]: 3.8
- PDI [1, 13]: 0.161 ± 0.045
- Z-Average [1, 13]: 3.1 ± 0.0 nm
- Z-Potential [1, 13]: −4.35 ± 1.99 mV
- pH [1, 13]: 4.1
- PDI [1, 14]: 0.217 ± 0.009
- Z-Average [1, 14]: 4.3 ± 1.8 nm
- Z-Potential [1, 14]: −0.0299 ± 0.260 mV
- pH [1, 14]: 4.6
- PDI [1, 15]: 0.466 ± 0.068
- Z-Potential [1, 15]: −22.1 ± 3.37 mV
- pH [1, 15]: 4.7
- Z-Average ([1]; 5.88 mmol/L α-T3DMG, TCA molar ratio 4, ambiguous data (footnote a)): 163.7 ± 84.5 ^a nm
- PDI [1, 16]: 0.490 ± 0.020
- Z-Average [1, 16]: 307.8 ± 8.6 nm
- pH [1, 16]: 2.7
- PDI [1, 17]: 0.336 ± 0.026
- Z-Average [1, 17]: 6.6 ± 0.1 nm
- pH [1, 17]: 3.5
- pH ([1]; 23.52 mmol/L α-T3DMG, TCA molar ratio 0.9): 3.9
- PDI ([1]; 23.52 mmol/L α-T3DMG, TCA molar ratio 0.9, ambiguous data (footnote a)): 0.286 ± 0.231 ^a
- Z-Average ([1]; 23.52 mmol/L α-T3DMG, TCA molar ratio 0.9, ambiguous data due to precipitation (footnote b)): 4.2 ± 0.4 ^b nm
- pH ([1]; 23.52 mmol/L α-T3DMG, TCA molar ratio 1): 3.9
- PDI ([1]; 23.52 mmol/L α-T3DMG, TCA molar ratio 1, ambiguous data (footnote a)): 0.250 ± 0.179 ^a
- PDI [1, 18]: 0.190 ± 0.045
- Z-Average [1, 18]: 9.2 ± 6.1 nm
- pH [1, 18]: 4.4
- PDI [1, 19]: 0.219 ± 0.051
- Z-Average [1, 19]: 22.4 ± 15.1 nm
- pH [1, 19]: 4.8
- PDI [1, 20]: 0.217 ± 0.005
- Z-Average [1, 20]: 23.7 ± 12.2 nm
- pH [1, 20]: 4.8
- appearance in water ([6]; absence of TCA, all concentrations (2.94–23.52 mmol/L)): cloudy
- appearance of mixed solution ([6]; equal molar ratio of TCA versus 23.52 mmol/L α-T3DMG): white precipitation
- appearance in water ([6]; presence of TCA, except 23.52 mmol/L α-T3DMG at α-T3DMG:TCA 1:0.9 and 1:1): transparent
- α-T3DMG levels in the n-octanol phase [7]: reached a plateau at approximately equal molar ratios of α-T3DMG and TCA
- plasma levels of α-T3DMG (ester form) relative to α-T3 ([2]; gastrostomy of α-T3DMG with TCA): 4–10%
- toxicity or abnormalities in rats and blood samples [8]: no toxicity or abnormalities were observed

- solubility at 3 h (Water solubility): > 50000 µM
- Km [3]: 1460 µM
- Km [4]: 176 µM
- hydrolysis in the presence of eserine [5]: completely inhibited
Compound: CNCC(=O)Oc1c(C)c(C)c2c(c1C)CC[C@@](C)(CC/C=C(\C)CC/C=C(\C)CCC=C(C)C)O2 [α-T3MG, 2R-α-Tocotrienyl N-methylglycinate]
- Vmax [3]: 5.573e-07 mol/L/min
- Vmax [4]: 2.051e-06 mol/L/min

- Km [3]: 1290 µM
- Km [4]: 61.6 µM
Compound: CC(C)=CCC/C(C)=C/CC/C(C)=C/CC[C@]1(C)CCc2c(C)c(OC(=O)CCC(=O)O)c(C)c(C)c2O1 [α-T3Suc, 2R-α-Tocotrienyl acid succinate]
- Vmax [3]: 1.033e-07 mol/L/min
- Vmax [4]: 7.426e-08 mol/L/min
